Data from ChEMBL document CHEMBL3137667, “[Drug-induced liver injury; fourteenth updated edition of the bibliographic database of liver injuries and related drugs]” (Gastroenterol Clin Biol, 2004).

Tests used:
[1] = Highest frequency of moderate liver toxicity observed during clinical trials, expressed as a percentage. [column '% BIOL' in source]; conditions: human
[2] = Highest frequency of acute liver toxicity observed during clinical trials, expressed as a percentage. [column '% AIGUE' in source]; conditions: human
[3] = human, serum
[4] = human, serum; remark: listed apart in the source
[5] = human
[6] = human; remark: listed apart in the source
[7] = human; remark: listed apart in the source
[8] = human, serum, 4383 h
[9] = human; remark: listed apart in the source
[10] = human; remark: listed apart in the source
[11] = human; remark: listed apart in the source
[12] = human; remark: listed apart in the source
[13] = human; remark: listed apart in the source
[14] = human; remark: listed apart in the source
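Throughout, for Hepatotoxicity (association with vascular disease): count of indexed literature references reporting vascular liver injury in humans, e.g. peliosis hepatitis, hepatic veno-occlusive disease or Budd-Chiari syndrome.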
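Throughout, for Hepatotoxicity (benign tumour): value is a count of indexed literature references citing a benign tumour confirmed by histopathology.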
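Throughout, for Hepatotoxicity (choleostasis): human cholestatic liver injury, shown by histopathology or by peak ALT or AST elevation over alkaline phosphatase ratio below 2, value counts indexed literature reports.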
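Throughout, for Hepatotoxicity (chronic liver disease): chronic liver injury confirmed by histopathology or persistently raised serum aminotransferase activity beyond 6 months, value given as the count of indexed literature references.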
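Throughout, for Hepatotoxicity (cirrhosis): value is a count of indexed literature references reporting cirrhosis confirmed by histopathology.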
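Throughout, for Hepatotoxicity (cytolytic): human cytolytic liver injury, shown by histopathology or by a ratio above 5 of peak ALT or AST elevation to alkaline phosphatase elevation, value counts indexed references.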
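Throughout, for Hepatotoxicity (granulomatous hepatitis): value is a count of indexed literature references reporting granulomatous liver disease confirmed by histopathology.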
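Throughout, for Hepatotoxicity (malignant tumour): malignant tumour confirmed by histopathology, value gives the count of indexed literature references reporting it.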
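Throughout, for Hepatotoxicity (severe hepatitis): human clinical data: severe hepatitis, meaning potentially life-threatening liver failure or clinically observed cases, the value counts how many indexed literature references report it.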
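Throughout, for Hepatotoxicity (steatosis): steatosis confirmed by histopathology, value is the count of indexed references.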

Compound | Hepatotoxicity (moderate) [1] [%] | Hepatotoxicity (acute) [2] [%] | Hepatotoxicity (moderate) [3] | Hepatotoxicity (acute) [4] | Hepatotoxicity (cytolytic) [5] | Hepatotoxicity (choleostasis) [6] | Hepatotoxicity (severe hepatitis) [7] | Hepatotoxicity (chronic liver disease) [8] | Hepatotoxicity (cirrhosis) [9] | Hepatotoxicity (granulomatous hepatitis) [10] | Hepatotoxicity (association with vascular disease) [11] | Hepatotoxicity (steatosis) [12] | Hepatotoxicity (malignant tumour) [13] | Hepatotoxicity (benign tumour) [14]
CC(=O)OCC(=O)[C@@]1(O)CC[C@H]2[C@@H]3CCC4=CC(=O)C=C[C@]4(C)[C@@]3(F)[C@@H](O)C[C@@]21C [ISOFLUPREDONE ACETATE] | 0 | 0 | 2 | 0 | 0 | 0 | 0 | 0 | 0 | 0 | 0 | 0 | 0 | 0
COC(=O)C1=C(C)NC(C)=C(C(=O)OC(C)C)C1c1cccc2nonc12 (configuration not stated) [ISRADIPINE] | 8.3 | 0 | 6 | 0 | 0 | 0 | 0 | 0 | 0 | 0 | 0 | 0 | 0 | 0
CNC1(c2ccccc2Cl)CCCCC1=O (configuration not stated) [KETAMINE] | 23.5 | 0 | 2 | 0 | 0 | 0 | 0 | 0 | 0 | 0 | 0 | 0 | 0 | 0
CN1CCC(=C2c3ccccc3CC(=O)c3sccc32)CC1 [KETOTIFEN] | 0 | 0 | 0 | 1 | 0 | 0 | 0 | 0 | 0 | 0 | 0 | 0 | 0 | 0
CCOC(=O)C1=C(C)NC(C)=C(C(=O)OCC)C1c1ccccc1/C=C/C(=O)OC(C)(C)C [LACIDIPINE] | 0 | 0 | 1 | 0 | 0 | 0 | 0 | 0 | 0 | 0 | 0 | 0 | 0 | 0
NCCNC(=O)c1ccc(Cl)cn1 [LAZABEMIDE] | 0.3 | 0 | 1 | 0 | 0 | 0 | 0 | 0 | 0 | 0 | 0 | 0 | 0 | 0
Cc1oc(=O)oc1COC(=O)[C@@H]1N2C(=O)[C@@H](NC(=O)[C@H](N)c3ccccc3)[C@H]2SC1(C)C [LENAMPICILLIN] | 22 | 0 | 9 | 0 | 0 | 0 | 0 | 0 | 0 | 0 | 0 | 0 | 0 | 0
O=C(CCCN1CCC(C(=O)c2ccc(F)cc2)CC1)c1ccc(F)cc1 [LENPERONE] | 0 | 0 | 2 | 0 | 0 | 0 | 0 | 0 | 0 | 0 | 0 | 0 | 0 | 0
